Test results reported in publication PMC9791066, “Investigations into the antibacterial effects and potential mechanism of gambogic acid and neogambogic acid” (Frontiers in Microbiology, 2022).
≈ marks a conversion by molar mass, not a printed value. Like-named read-outs stand apart in the source and are kept apart here.

Legend:
[1] = target: T1, Enterococcus faecalis UPPS (EfaUPPS), wild-type (Enterococcus faecalis, UniProt Q831K9); assay: UPPS inhibition assay (enzyme-coupled fluorescence), wild-type EfaUPPS; type: biochemical
T1 construct: His tag; made in house; host or cells: E. coli BL21(DE3)
T1 sequence (Q831K9 whole entry): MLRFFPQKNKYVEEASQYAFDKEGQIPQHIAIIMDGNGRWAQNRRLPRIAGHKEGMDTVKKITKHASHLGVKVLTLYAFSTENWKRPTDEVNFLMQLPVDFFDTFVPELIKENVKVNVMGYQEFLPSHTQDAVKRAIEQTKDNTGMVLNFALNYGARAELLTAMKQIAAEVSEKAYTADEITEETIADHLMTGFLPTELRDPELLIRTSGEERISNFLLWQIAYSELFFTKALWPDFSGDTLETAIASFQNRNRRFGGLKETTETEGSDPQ
Protocol: Enterococcus faecalis undecaprenyl pyrophosphate synthase (EfaUPPS) recombination studies were performed as previously described ([Li et al., 2020]). Briefly, the full-length gene sequence of EfaUPPS was cloned into the NdeI and HindIII sites of pET28a vector under control of T7 promoter. The sequenced plasmid was then transformed into E. coli strain BL21(DE3) (Invitrogen) and the transformants were grown on LB broth media supplemented with 50 μg/mL kanamycin. A single colony of the transformant was then cultured in 100 mL of LB broth containing 50 μg/mL kanamycin overnight. The overnight cultures were inoculated into 1 L of LB broth containing 50 μg/mL kanamycin and continue to culture until reaching an OD600 of 0.8. Upon reaching the optimal growth states, the cultures were induced by addition of 1 mM isopropyl-β-D-thiogalactoside (IPTG), and then cultured at 16°C for 16 h. […]
The UPPS inhibition assay was carried out by measuring the fluorescence of the reaction mixture in a black 96-well microtiter plate (Corning, United States). […] The UPPS inhibitory activity was performed by calculating the fluorescence percentage through determining the fluorescence absorbance of reaction mixture at 316 and 456 nm. […]

[2] = target: T2, EfaUPPS (K47A) (Enterococcus faecalis, UniProt Q831K9, K53A); assay: UPPS inhibition assay, EfaUPPS K47A mutant; type: biochemical; settings: K47A mutant compared with wild-type
T2 construct: His tag; made in house; host or cells: E. coli BL21(DE3)
T2 sequence (Q831K9 whole entry K53A): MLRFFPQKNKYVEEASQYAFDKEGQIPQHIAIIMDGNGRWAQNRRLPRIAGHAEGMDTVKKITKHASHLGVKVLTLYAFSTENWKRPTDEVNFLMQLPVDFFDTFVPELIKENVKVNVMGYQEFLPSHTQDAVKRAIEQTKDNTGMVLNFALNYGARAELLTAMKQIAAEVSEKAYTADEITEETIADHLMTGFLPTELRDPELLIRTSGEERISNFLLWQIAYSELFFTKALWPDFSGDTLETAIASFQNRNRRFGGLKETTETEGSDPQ
Protocol: (§1) The EfaUPPS site-directed mutagenesis was generated using QuikChange site-directed mutagenesis kit (Agilent) according to the manufacturer’s instructions. The purification of site-directed mutation was using a similar strategy as described above.
(§2) The UPPS inhibition assay was carried out by measuring the fluorescence of the reaction mixture in a black 96-well microtiter plate (Corning, United States). […] After the indicated incubation period, the reaction was terminated by the addition of 10 μl of 0.5 M EDTA solution. Transferred 50 μl of the reaction mixture into a new 96-well microtiter plate, and quenched with an equal volume of Master Reaction Mix (Pyrophosphate Assay Kit, Sigma-Aldrich, USA) for 30 min. The UPPS inhibitory activity was performed by calculating the fluorescence percentage through determining the fluorescence absorbance of reaction mixture at 316 and 456 nm. Data of UPPS inhibitory activities were plotted versus compound concentrations on a semi-log scale using GraphPad Prism7. All the results were the means of at least three biological replicates.

[3] = target: T3, EfaUPPS (L146A) (Enterococcus faecalis, UniProt Q831K9, L152A); assay: UPPS inhibition assay, EfaUPPS L146A mutant; type: biochemical; settings: for effect of mutation on inhibitory effect of compound on EfaUPPS enzyme activity: L146A mutant compared with wild-type; for IC50 fold higher than that of the wild-type: L146A mutant vs wild-type (~3 μM)
T3 construct: His tag; made in house; host or cells: E. coli BL21(DE3)
T3 sequence (Q831K9 whole entry L152A): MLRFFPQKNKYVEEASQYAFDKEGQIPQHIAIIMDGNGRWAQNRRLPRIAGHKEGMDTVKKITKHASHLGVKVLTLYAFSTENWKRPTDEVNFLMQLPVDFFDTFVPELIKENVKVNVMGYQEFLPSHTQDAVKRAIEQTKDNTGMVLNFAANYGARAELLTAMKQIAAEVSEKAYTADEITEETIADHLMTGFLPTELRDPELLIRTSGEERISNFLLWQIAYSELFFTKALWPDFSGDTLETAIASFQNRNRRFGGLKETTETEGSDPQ
Protocol: as §1, §2

[4] = target: T4, EfaUPPS (I43A) (Enterococcus faecalis, UniProt Q831K9, I49A); assay: UPPS inhibition assay, EfaUPPS I43A mutant; type: biochemical
T4 construct: His tag; made in house; host or cells: E. coli BL21(DE3)
T4 sequence (Q831K9 whole entry I49A): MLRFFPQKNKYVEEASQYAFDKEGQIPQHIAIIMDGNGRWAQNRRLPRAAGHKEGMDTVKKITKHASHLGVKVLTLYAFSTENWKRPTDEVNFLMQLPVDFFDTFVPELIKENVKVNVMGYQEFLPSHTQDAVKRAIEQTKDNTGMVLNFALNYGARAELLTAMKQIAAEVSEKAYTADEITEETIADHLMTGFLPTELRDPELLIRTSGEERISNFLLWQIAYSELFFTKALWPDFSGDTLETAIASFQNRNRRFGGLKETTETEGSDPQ
Protocol: as §1, §2

[5] = target: T5, WT EfaUPPS (Enterococcus faecalis, UniProt Q831K9); assay: Microscale thermophoresis binding assay, wild-type EfaUPPS
T5 construct: His tag; made in house; host or cells: E. coli BL21(DE3)
T5 sequence (Q831K9 whole entry): as the sequence (Q831K9 whole entry) above
Protocol: (§3) To characterize the binding affinity between EfaUPPS and GA or NGA, the MST binding assay was performed as previously described ([Lin et al., 2020]). In brief, His-tagged EfaUPPS and site-directed mutated EfaUPPS were labeled with the NT- 647-NHS dye using the Monolith NTTM Protein Labeling Kit RED-NHS (NanoTemper Technologies). Two-fold serially diluted GA or NGA was mixed with 10 nM of labeled EfaUPPS or its derivatives in 10 μl of binding buffer (137 mM NaCl, 2.7 mM KCl, 10 mM Na2HPO4, 1.8 mM KH2PO4, and 0.05% Tween-20, pH 7.8), incubated for 15 min, at room temperature. And then, loaded the mixtures into NT.115 premium coated capillaries (NanoTemper Technologies). MST trace signals were collected from the IR laser on to off for about 20 s, under the 5% LED power and high MST power mode. The change of molecular thermophoresis was monitored by standardized fluorescence value Fnorm, and the binding curve was plotted according to the values of Fnorm. The formed complex affinity was analyzed by MO Affinity Analysis software version 2.3. Apparent dissociation constants (Kd) were calculated using nonlinear fitting assuming one specific binding site with the GraphPad Prism 7 software with the following formula: Y = B^∗Max X/KD + X.
(§4) (^∗ where BMax is the maximum theoretical specific binding; here BMax = 1).

[6] = target: T3, EfaUPPS (L146A); assay: Microscale thermophoresis binding assay, EfaUPPS L146A; settings: MST, no binding
Protocol: as §3, §4

[7] = target: T4, EfaUPPS (I43A); assay: Microscale thermophoresis binding assay, EfaUPPS I43A
Protocol: as §3, §4

[8] = system: Escherichia coli BAS 849; assay: microbe, parasite or virus in culture; type: cell-based; settings: Escherichia coli
Protocol: (§5) Antibacterial activities were performed by examining the minimal inhibitory concentrations (MICs), which was determined by a microtiter broth dilution method as previously described ([Cotsonas King and Wu, 2009]), with minor modifications. Briefly, 96-well plates (Corning) were inoculated with 100 μl of LB broth per well containing 7 × 10^5 CFU/mL bacteria, followed by adding 100 μl of LB broth containing two-fold serial dilutions of the test compounds. […] After 18 h of incubation, the MIC was determined to be the lowest concentration without visible bacterial growth. The results were the averages of at least three biological replicates.

[9] = system: Escherichia coli BL21 (DE3); assay: microbe, parasite or virus in culture; type: cell-based; settings: Escherichia coli, 18 h
Protocol: as §5

[10] = system: Escherichia coli DH5α; assay: microbe, parasite or virus in culture; type: cell-based; settings: Escherichia coli, 18 h
Protocol: as §5

Question: For CC(C)=CCC[C@]1(C)C=Cc2c(O)c3c(c(CC=C(C)C)c2O1)O[C@]12C(=C[C@@H]4C[C@H]1C(C)(C)O[C@@]2(C/C=C(/C)C(=O)O)C4=O)C3=O [GA, gambogic acid], which IC50 ([1]; WT EfaUPPS, 35 μM IPP, 5 μM FPP, read-out: IC50) is on record?
Answer: 3.08 µM

Question: And the “IC50 values of K47A mutant (in words)” value [2]?
Answer: increased

Question: And the “effect of mutation on inhibitory effect of compound on EfaUPPS enzyme activity” value [2]?
Answer: no obvious difference

Question: And the IC50 [3]?
Answer: ~30 µM

Question: And the “effect of mutation on inhibitory effect of compound on EfaUPPS enzyme activity” value [3]?
Answer: significantly decreased

Question: What about the “IC50 fold higher than that of the wild-type” value (“IC50 fold higher than that” below) [3] of the same molecule?
Answer: about 10 fold

Question: And the IC50 [4]?
Answer: ~30 µM

Question: And the “effect of mutation on inhibitory effect of compound on EfaUPPS enzyme activity” value ([4]; I43A mutant compared with wild-type)?
Answer: significantly decreased

Question: What about the “IC50 fold higher than that” value ([4]; I43A mutant vs wild-type (~3 μM)) of the same molecule?
Answer: about 10 fold

Question: What about the Kd ([5]; MST, WT EfaUPPS, read-out: Kd) of the same molecule?
Answer: 29 ± 8.03 µM

Question: What about the Kd [6] of the same molecule?
Answer: > 50000 µM

Question: And the Kd [7]?
Answer: > 50000 µM

Question: What about the MIC ([8]; BAS849, LB broth, 18 h, strain with deficient outer-membrane structure, read-out: MIC) of the same molecule?
Answer: 8 µg/mL (≈ 12.7 µM)

Question: And the MIC ([9]; LB broth, read-out: MIC)?
Answer: > 64 µg/mL

Question: What about the MIC ([10]; LB broth, read-out: MIC) of the same molecule?
Answer: > 64 µg/mL

Question: With CC(C)=CCC[C@]1(C)CC(O)c2c(O)c3c(c(CC=C(C)C)c2O1)O[C@]12C(=C[C@@H]4C[C@H]1C(C)(C)O[C@@]2(C/C=C(/C)C(=O)O)C4=O)C3=O (some centres unmarked) [NGA, neogambogic acid] as the molecule, how does the IC50 [1] read?
Answer: 3.07 µM

Question: And the “effect of mutation on inhibitory effect of compound on EfaUPPS enzyme activity” value [2]?
Answer: significantly reduced

Question: What about the IC50 [3] of the same molecule?
Answer: ~30 µM

Question: What about the “effect of mutation on inhibitory effect of compound on EfaUPPS enzyme activity” value [3] of the same molecule?
Answer: significantly reduced

Question: And the “IC50 fold higher than that” value [3]?
Answer: about 10 fold

Question: And the Kd [5]?
Answer: 5.61 ± 2.16 µM

Question: What about the “Kd fold lower than that for GA” value ([5]; WT EfaUPPS, NGA vs GA) of the same molecule?
Answer: about 5 fold

Question: And the Kd [6]?
Answer: > 50000 µM

Question: And the MIC ([8]; BAS849, 18 h)?
Answer: 8 µg/mL (≈ 12.4 µM)

Question: What about the MIC [9] of the same molecule?
Answer: > 64 µg/mL

Question: And the MIC [10]?
Answer: > 64 µg/mL
